The values below come from ChEMBL document CHEMBL3588786, “Synthesis and Biological evaluation of novel 4β-[(5-substituted)-1,2,3,4-tetrazolyl] podophyllotoxins as anticancer compounds” (Bioorg Med Chem Lett, 2015).

Calls of active or inactive are those of the source. The rule behind the calls is not given here.

One test has as its target Tubulin (Bos taurus) (UniProt Q6B856+Q862F3). The experiment in a line: Inhibition of bovine brain tubulin polymerization assessed as increase in fluorescence intensity at 5 uM relative to control.
A further test concerns SK-N-SH. The experiment in a line: Cytotoxicity against human SK-N-SH cells assessed as cell viability by SRB assay. It is filed as functional, cell-based. A general note: The SRB assay estimates cell density from bound dye.
Test [1] relates to A549. The test can be described thus: Cytotoxicity against human A549 cells assessed as cell viability by SRB assay. In kind it is functional, cell-based.
In another test the test system is HeLa. The test can be described thus: Cytotoxicity against human HeLa cells assessed as cell viability by SRB assay. In kind it is functional, cell-based.
In a further test the test system is MCF7. The experiment in a line: Cytotoxicity against human MCF7 cells assessed as cell viability by SRB assay. It is filed as functional, cell-based.
Test [2] concerns A549. The experiment in a line: Induction of cell cycle arrest in human A549 cells assessed as accumulation at G2/M phase at 5 uM after 24 hrs by flow cytometry. In kind it is functional. (In general: A flow cytometer gives signals particle by particle.)
In test [3] the test system is A549. The test can be described thus: Antimitotic activity against human A549 cells at 5 uM after 12 hrs by flow cytometry. It is filed as functional, cell-based.
Test [4] has as its system A549. The test can be described thus: Induction of cell cycle arrest in human A549 cells assessed as accumulation at G0 phase at 5 uM after 24 hrs by flow cytometry. It is filed as functional.
For test [5], the system named is A549. The test can be described thus: Induction of cell cycle arrest in human A549 cells assessed as accumulation at G1 phase at 5 uM after 24 hrs by flow cytometry. It is filed as functional.
Test [6] concerns A549. The experiment in a line: Induction of cell cycle arrest in human A549 cells assessed as accumulation at S phase at 5 uM after 24 hrs by flow cytometry. It is filed as functional.

For the compound `COC(=O)Nc1nc2ccc(C(=O)c3cccs3)cc2n1C`, the inhibition (usually the drop in the measured response relative to a control, in per cent) at Tubulin (Bos taurus) is 65.3%.

Consider `CCOC(=O)c1nnnn1[C@@H]1c2cc3c(cc2[C@@H](c2cc(OC)c(O)c(OC)c2)[C@H]2C(=O)OC[C@@H]21)OCO3`, for which the IC50 (as a rule, the concentration that inhibits the measured activity by half) is 25.9 µM in the test with SK-N-SH, 6.49 µM in the test with A549 [1], 29.1 µM in the test with HeLa and 12.4 µM in the test on MCF7. Besides, the inhibition at Tubulin (Bos taurus) came to 2.68%. Further, the Activity with A549 [2] is given as 74.86%; in the test on A549 [4], 7.3%; in the test with A549 [5], 11.83%; in the test on A549 [6] it was 6%. Also, the result with A549 [3] was Active.

As to `COc1cc([C@@H]2c3cc4c(cc3[C@@H](n3nnnc3C(=O)c3ccccc3)[C@H]3COC(=O)[C@H]23)OCO4)cc(OC)c1O`, the IC50 in the test with SK-N-SH was found to be 3.49 µM; in the test with A549 [1], 2.71 µM; with HeLa, 3.61 µM; in the test on MCF7, 7.02 µM. At Tubulin (Bos taurus), the inhibition was found to be 11.5%. The Activity in the test on A549 [2] was 63.93%; in the test on A549 [4], 9.66%; in the test on A549 [5] it was 19.89%; with A549 [6], 6.49%. In addition, the result with A549 [3] was Active.

As to `COc1cc([C@@H]2c3cc4c(cc3[C@H](O)[C@H]3COC(=O)[C@H]23)OCO4)cc(OC)c1OC` [PODOFILOX], the IC50 in the test on SK-N-SH came to 7.92 µM; in the test on A549 [1] it was 2.55 µM; with HeLa, 1.92 µM; with MCF7, 3.34 µM. For the same compound, the inhibition on Tubulin (Bos taurus) was 93.9%. Also, the Activity with A549 [2] worked out at 60.77%; with A549 [4], 9.48%; in the test on A549 [5], 19.71%; in the test on A549 [6], 10.03%.

As for `COc1cc([C@@H]2c3cc4c(cc3[C@@H](n3nnnc3C(=O)c3ccccc3)[C@H]3COC(=O)[C@H]23)OCO4)cc(OC)c1OC`, the IC50 with SK-N-SH amounted to 4.68 µM; in the test with A549 [1] it was 4.29 µM; in the test on HeLa, 4.76 µM; in the test with MCF7, 6.89 µM. In addition, the inhibition at Tubulin (Bos taurus) turned out to be 72.5%. For the same compound, the Activity in the test with A549 [2] is 69.37%; in the test on A549 [4] it was 11.01%; with A549 [5], 13.88%; in the test with A549 [6] it was 5.73%.

For `COc1cccc2c1C(=O)c1c(O)c3c(c(O)c1C2=O)C[C@@](O)(C(=O)CO)C[C@@H]3O[C@H]1C[C@H](N)[C@H](O)[C@H](C)O1` [DOXORUBICIN], the IC50 in the test on SK-N-SH turned out to be 7.36 µM; in the test with A549 [1], 6.13 µM; with HeLa it was 10.8 µM; with MCF7 it was 12.3 µM.

Turning to `CCOC(=O)c1nnnn1[C@@H]1c2cc3c(cc2[C@@H](c2cc(OC)c(OC)c(OC)c2)[C@H]2C(=O)OC[C@@H]21)OCO3`, the IC50 with SK-N-SH was found to be 3.61 µM; with A549 [1] it was 2.4 µM; in the test with HeLa it was 4.76 µM; in the test on MCF7, 7.47 µM. Further, at Tubulin (Bos taurus), the inhibition worked out at 99.2%. The Activity in the test with A549 [2] worked out at 65.6%; in the test on A549 [4], 12.44%; in the test with A549 [5] it was 16.44%; in the test with A549 [6] it was 5.52%.

`CC(=O)O[C@H]1C(=O)[C@@]2(C)[C@H]([C@H](OC(=O)c3ccccc3)[C@]3(O)C[C@H](OC(=O)[C@H](O)[C@@H](NC(=O)c4ccccc4)c4ccccc4)C(C)=C1C3(C)C)[C@]1(OC(C)=O)CO[C@@H]1C[C@@H]2O` [PACLITAXEL]: the Activity came to 70.48% in the test on A549 [2], 9.81% in the test with A549 [4], 13.7% in the test on A549 [5] and 6.01% with A549 [6].

For the compound `COc1cc([C@@H]2c3cc4c(cc3[C@@H](n3nnnc3C(=O)OCc3ccccc3)[C@H]3COC(=O)[C@H]23)OCO4)cc(OC)c1OC`, the IC50 with SK-N-SH amounted to 4.58 µM; with A549 [1], 2.48 µM; in the test on HeLa it was 4.01 µM; in the test with MCF7, 4.85 µM. Also, on Tubulin (Bos taurus), the inhibition amounted to 57.5%. The Activity came out at 65.34% in the test with A549 [2], 10.28% in the test with A549 [4], 17.77% with A549 [5] and 6.61% in the test with A549 [6].

For `COc1cc([C@@H]2c3cc4c(cc3[C@@H](n3nnnc3S(=O)(=O)c3ccc(C)cc3)[C@H]3COC(=O)[C@H]23)OCO4)cc(OC)c1OC`, the IC50 in the test on SK-N-SH turned out to be 5.31 µM; with A549 [1], 2.89 µM; in the test with HeLa, 3.15 µM; with MCF7, 6.99 µM. On Tubulin (Bos taurus), the inhibition was 0.73%. Further, the Activity worked out at 54.73% in the test with A549 [2], 19.96% in the test with A549 [4], 20.09% in the test on A549 [5] and 5.22% in the test with A549 [6]. Further, the outcome in the test on A549 [3] was Active.

Consider `COC(=O)c1nnnn1[C@@H]1c2cc3c(cc2[C@@H](c2cc(OC)c(O)c(OC)c2)[C@H]2C(=O)OC[C@@H]21)OCO3`, for which the IC50 in the test on SK-N-SH came to 5.64 µM; in the test with A549 [1] it was 2.44 µM; in the test with HeLa it was 3.95 µM; in the test with MCF7, 5.27 µM. The inhibition on Tubulin (Bos taurus) worked out at 28.3%. The Activity in the test with A549 [2] came to 68.48%; with A549 [4] it was 9.96%; in the test on A549 [5], 15.18%; with A549 [6] it was 6.38%.

Turning to `COC(=O)c1nnnn1[C@@H]1c2cc3c(cc2[C@@H](c2cc(OC)c(OC)c(OC)c2)[C@H]2C(=O)OC[C@@H]21)OCO3`, the half-inhibitory concentration (IC50) in the test with SK-N-SH turned out to be 6.5 µM; in the test with A549 [1], 3.11 µM; in the test on HeLa, 5.25 µM; in the test with MCF7, 6.97 µM. Further, the inhibition on Tubulin (Bos taurus) came to 12.4%. Moreover, the Activity in the test with A549 [2] is recorded as 45.43%; with A549 [4], 19.92%; in the test on A549 [5], 30.01%; with A549 [6], 4.61%. In the test on A549 [3], the outcome was Active.

Regarding `COc1cc([C@@H]2c3cc4c(cc3[C@@H](n3nnnc3C(=O)OCc3ccccc3)[C@H]3COC(=O)[C@H]23)OCO4)cc(OC)c1O`, the IC50 in the test with SK-N-SH came out at 6.16 µM; with A549 [1], 2.98 µM; in the test on HeLa, 4.77 µM; in the test with MCF7, 9.44 µM. The inhibition at Tubulin (Bos taurus) stood at 29.8%. The Activity with A549 [2] came to 63.19%; in the test on A549 [4], 8.61%; in the test on A549 [5], 19.95%; in the test on A549 [6], 8.25%.

Turning to `COc1cc([C@@H]2c3cc4c(cc3[C@@H](n3nnnc3S(=O)(=O)c3ccc(C)cc3)[C@H]3COC(=O)[C@H]23)OCO4)cc(OC)c1O`, the IC50 was found to be 3.44 µM in the test with SK-N-SH, 3.29 µM with A549 [1], 3.05 µM with HeLa and 5.29 µM in the test with MCF7. The inhibition on Tubulin (Bos taurus) was found to be 22.5%. The Activity is on record as 62.48% in the test on A549 [2], 11% in the test with A549 [4], 19.28% with A549 [5] and 7.28% in the test on A549 [6].
